One data set deals with T1, TXK (Homo sapiens, UniProt P42681).
T1 sequence (P42681 1-527): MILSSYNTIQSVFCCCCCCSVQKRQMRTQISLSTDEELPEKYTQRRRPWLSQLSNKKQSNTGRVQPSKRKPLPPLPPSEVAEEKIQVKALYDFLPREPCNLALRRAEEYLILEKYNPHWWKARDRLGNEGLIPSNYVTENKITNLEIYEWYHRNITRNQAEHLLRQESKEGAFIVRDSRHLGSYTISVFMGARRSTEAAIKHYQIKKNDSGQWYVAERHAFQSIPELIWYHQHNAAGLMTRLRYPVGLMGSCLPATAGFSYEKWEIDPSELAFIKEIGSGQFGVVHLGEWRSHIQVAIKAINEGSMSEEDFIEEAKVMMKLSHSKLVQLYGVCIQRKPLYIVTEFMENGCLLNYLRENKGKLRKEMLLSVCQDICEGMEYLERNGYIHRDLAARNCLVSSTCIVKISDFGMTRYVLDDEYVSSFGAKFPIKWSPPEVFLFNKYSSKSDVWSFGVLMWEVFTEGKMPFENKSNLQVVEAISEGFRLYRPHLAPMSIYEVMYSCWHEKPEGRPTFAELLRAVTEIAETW
Briefly: scanMAX binding POC, TXK. The following applies: 1 μM. The text has this: (§1) Comprehensive Characterization of Bruton’s Tyrosine Kinase Inhibitor Specificity, Potency, and
(§2) Biological Effects: Insights into Covalent and Non-Covalent Mechanistic Signatures
(§3) Antonia C. Darragh1, Andrew M. Hanna1, Justin H. Lipner2, Alastair J. King2, Nicole B. Servant1, Mirza Jahic1*
(§4) *To whom correspondence should be addressed: Mirza Jahic, e-mail address: Mirza.Jahic@discovery.eurofinsus.com
(§5) Supporting Table S1. Comparison of BTK inhibitor specificity to TEC family members. TEC family members are
(§6) Burton’s tyrosine kinase (BTK), tyrosine kinase expressed in hepatocellular carcinoma (TEC), bone marrow-
(§7) expressed kinase (BMX/ETK), and T cell-expressed kinase (TXK/RLK), and interleukin-2-inducible T cell kinase
(§8) A zero POC signifies that the compound

The target in another data set is ERBB2 (Homo sapiens, UniProt P04626). In words: scanMAX binding POC, ERBB2. The following applies: 1 μM.
A further data set concerns the target JNK1 (MAPK8) (Homo sapiens, UniProt P45983). Briefly: scanMAX binding POC, JNK1. To be noted: 1 μM.
A further data set has as its target JNK2 (MAPK9) (Homo sapiens, UniProt P45984). Briefly: scanMAX binding POC, JNK2. The following applies: 1 μM.
The test system of the next data set is BTK C481S. The following applies: read-out: average published IC50 for BTK C481S; cited from earlier work.
For a further data set, the target named is T2, MKK7 (Homo sapiens, UniProt O14733).
T2 sequence (O14733 1-419): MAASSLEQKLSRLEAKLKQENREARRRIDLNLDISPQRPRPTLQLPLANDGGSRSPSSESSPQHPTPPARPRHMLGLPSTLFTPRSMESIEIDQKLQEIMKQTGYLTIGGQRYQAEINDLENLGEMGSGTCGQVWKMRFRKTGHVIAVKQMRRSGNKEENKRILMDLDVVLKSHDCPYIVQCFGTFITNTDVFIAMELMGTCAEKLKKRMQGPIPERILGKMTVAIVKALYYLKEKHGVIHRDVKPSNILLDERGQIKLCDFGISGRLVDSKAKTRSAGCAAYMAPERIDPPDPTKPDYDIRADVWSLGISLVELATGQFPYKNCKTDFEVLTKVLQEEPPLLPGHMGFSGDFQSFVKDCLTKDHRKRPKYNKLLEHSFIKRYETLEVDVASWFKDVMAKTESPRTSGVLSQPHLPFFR
Briefly: scanMAX binding POC, MKK7. The following applies: 1 μM.

Another data set addresses ERBB4 (Homo sapiens, UniProt Q15303). In words: scanMAX binding POC, ERBB4. The following applies: 1 μM.
In the next data set the target is BLK (Homo sapiens, UniProt P51451). Briefly: scanMAX binding POC, BLK. The following applies: 1 μM.
The next data set has as its system BTK. To be noted: cited from earlier work.
Another data set addresses ERBB3 (Homo sapiens, UniProt P21860). Briefly: scanMAX binding POC, ERBB3. To be noted: 1 μM.
For another data set, the target named is EGFR (Homo sapiens, UniProt P00533). In words: scanMAX binding POC, EGFR. To be noted: 1 μM.
The target in the next data set is T3, TEC (Homo sapiens, UniProt P42680).
T3 sequence (P42680 1-631): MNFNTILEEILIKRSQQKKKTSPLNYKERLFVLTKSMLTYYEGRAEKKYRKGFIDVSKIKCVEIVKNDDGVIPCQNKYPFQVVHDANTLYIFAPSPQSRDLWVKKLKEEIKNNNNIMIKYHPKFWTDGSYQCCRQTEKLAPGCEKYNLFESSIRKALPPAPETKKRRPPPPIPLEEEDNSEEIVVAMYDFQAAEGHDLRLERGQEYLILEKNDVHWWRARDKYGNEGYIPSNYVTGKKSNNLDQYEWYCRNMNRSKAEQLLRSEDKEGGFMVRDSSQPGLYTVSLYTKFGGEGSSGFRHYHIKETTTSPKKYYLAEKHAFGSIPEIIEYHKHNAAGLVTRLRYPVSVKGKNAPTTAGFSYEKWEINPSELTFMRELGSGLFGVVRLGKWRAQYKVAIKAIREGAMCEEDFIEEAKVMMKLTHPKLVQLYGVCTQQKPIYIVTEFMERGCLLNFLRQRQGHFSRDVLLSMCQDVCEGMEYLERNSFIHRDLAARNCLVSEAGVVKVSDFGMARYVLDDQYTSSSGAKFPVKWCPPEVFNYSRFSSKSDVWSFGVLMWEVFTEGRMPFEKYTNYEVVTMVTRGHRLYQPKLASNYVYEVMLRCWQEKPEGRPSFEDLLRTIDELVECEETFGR
Briefly: scanMAX binding POC, TEC. The following applies: 1 μM.
Source text: as §1, §2, §3, §4, §5, §6, §7, §8

For the next data set, the system named is patients with R/R MCL. More on the design: method as in NCT03494179. To be noted: ref NCT03494179; cited from earlier work.
Data set [1] addresses T4, JAK3 (JH1 catalytic domain) (Homo sapiens, UniProt P52333).
T4 construct: The JAK3 POC is for its JH1 catalytic domain
In words: scanMAX binding POC, JAK3. The following applies: 1 μM.

For a further data set, the target named is JNK3 (MAPK10) (Homo sapiens, UniProt P53779). Briefly: scanMAX binding POC, JNK3. The following applies: 1 μM.
The target in another data set is T5, ITK (Homo sapiens, UniProt Q08881).
T5 sequence (Q08881 1-620): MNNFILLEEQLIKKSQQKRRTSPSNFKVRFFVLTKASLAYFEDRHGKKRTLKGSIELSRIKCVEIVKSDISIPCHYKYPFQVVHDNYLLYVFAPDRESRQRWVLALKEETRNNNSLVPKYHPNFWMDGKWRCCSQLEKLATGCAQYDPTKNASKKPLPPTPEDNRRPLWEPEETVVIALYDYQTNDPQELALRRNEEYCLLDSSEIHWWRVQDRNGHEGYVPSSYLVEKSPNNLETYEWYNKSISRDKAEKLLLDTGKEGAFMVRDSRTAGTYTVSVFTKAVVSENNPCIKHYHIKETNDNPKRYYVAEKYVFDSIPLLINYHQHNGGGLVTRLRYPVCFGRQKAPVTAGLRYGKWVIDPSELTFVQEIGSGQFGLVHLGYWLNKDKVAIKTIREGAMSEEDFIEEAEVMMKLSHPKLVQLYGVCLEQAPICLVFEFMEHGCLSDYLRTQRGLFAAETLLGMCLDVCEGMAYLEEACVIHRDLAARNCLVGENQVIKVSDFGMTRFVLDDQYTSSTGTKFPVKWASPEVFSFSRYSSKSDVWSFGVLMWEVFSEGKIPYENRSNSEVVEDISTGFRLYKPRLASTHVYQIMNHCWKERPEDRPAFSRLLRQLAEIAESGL
Briefly: scanMAX binding POC, ITK. The following applies: 1 μM.
Source text: as §1, §2, §3, §4, §5, §6, §7, §8

Another data set addresses T6, BMX (Homo sapiens, UniProt P51813).
T6 sequence (P51813 1-675): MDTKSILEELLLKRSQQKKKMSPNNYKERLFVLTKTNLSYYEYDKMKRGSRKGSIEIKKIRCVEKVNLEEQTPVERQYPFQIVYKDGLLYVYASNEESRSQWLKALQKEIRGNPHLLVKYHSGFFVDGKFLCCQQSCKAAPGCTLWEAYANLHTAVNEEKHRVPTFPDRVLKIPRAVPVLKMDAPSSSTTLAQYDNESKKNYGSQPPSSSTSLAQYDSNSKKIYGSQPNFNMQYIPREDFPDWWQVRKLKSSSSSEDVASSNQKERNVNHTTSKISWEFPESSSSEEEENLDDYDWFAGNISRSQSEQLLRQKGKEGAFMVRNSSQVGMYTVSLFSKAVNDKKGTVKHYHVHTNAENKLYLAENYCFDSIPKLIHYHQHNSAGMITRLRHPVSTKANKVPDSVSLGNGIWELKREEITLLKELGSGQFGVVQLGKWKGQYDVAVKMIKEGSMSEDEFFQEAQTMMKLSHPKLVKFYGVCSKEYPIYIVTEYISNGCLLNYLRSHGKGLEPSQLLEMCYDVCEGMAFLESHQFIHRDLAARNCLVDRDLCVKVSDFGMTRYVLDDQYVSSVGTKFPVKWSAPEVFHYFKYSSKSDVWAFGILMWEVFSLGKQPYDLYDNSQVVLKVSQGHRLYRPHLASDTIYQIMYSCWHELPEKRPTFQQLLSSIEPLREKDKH
Briefly: scanMAX binding POC, BMX. The following applies: 1 μM.
Source text: as §1, §2, §3, §4, §5, §6, §7, §8

The test system of data set [2] is relapsed/refractory (R/R) CLL and small lymphocytic lymphoma (SLL). Details: method as in NCT03734016. To be noted: cited from earlier work.

ERBB3, sequence (P21860 20-1342): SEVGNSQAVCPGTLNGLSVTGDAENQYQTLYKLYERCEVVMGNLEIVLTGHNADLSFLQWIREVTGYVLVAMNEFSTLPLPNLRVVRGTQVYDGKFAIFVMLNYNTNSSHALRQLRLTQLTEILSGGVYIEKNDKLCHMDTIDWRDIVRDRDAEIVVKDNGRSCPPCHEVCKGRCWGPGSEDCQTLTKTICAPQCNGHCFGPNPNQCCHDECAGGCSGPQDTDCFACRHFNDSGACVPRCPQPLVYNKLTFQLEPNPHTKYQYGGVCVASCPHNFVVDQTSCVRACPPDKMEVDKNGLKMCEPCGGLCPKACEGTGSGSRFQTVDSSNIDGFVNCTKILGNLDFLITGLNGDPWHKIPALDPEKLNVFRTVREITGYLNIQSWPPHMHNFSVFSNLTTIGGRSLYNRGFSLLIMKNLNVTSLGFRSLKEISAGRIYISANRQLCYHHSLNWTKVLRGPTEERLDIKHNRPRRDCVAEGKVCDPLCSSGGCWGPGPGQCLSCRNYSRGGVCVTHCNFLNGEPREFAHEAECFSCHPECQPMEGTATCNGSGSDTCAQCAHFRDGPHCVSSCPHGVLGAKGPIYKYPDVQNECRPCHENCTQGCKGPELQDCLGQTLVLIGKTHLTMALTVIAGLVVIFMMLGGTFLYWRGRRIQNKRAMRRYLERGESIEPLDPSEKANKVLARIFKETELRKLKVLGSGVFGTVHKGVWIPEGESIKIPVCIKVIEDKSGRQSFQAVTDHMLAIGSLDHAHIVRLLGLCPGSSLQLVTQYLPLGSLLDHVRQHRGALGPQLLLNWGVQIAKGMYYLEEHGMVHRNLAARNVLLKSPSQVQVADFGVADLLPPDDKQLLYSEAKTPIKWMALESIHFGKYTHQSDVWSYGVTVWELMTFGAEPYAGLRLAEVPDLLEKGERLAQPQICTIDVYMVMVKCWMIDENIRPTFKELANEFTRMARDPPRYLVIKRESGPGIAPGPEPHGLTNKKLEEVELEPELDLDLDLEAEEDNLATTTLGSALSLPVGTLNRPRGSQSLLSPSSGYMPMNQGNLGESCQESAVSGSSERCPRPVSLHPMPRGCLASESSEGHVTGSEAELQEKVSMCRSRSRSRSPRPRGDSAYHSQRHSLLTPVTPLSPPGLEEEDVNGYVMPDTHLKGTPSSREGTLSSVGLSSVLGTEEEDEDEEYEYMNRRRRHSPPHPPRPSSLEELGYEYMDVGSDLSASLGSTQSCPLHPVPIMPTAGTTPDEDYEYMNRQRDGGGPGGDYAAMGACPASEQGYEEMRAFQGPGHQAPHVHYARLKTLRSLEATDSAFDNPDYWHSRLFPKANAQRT
JNK2 (MAPK9), sequence (P45984 whole entry): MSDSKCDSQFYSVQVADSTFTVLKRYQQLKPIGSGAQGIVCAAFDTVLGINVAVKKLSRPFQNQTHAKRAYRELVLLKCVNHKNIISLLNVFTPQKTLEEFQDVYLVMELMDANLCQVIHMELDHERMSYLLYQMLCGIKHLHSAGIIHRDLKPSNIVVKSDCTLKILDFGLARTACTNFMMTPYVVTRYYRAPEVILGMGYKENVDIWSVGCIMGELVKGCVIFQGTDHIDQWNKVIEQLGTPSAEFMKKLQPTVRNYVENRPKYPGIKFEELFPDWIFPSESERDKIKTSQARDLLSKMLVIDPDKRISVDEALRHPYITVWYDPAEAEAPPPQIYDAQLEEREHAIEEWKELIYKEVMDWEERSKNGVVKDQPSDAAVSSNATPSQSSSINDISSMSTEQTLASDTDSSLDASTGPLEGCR
BLK, sequence (P51451 whole entry): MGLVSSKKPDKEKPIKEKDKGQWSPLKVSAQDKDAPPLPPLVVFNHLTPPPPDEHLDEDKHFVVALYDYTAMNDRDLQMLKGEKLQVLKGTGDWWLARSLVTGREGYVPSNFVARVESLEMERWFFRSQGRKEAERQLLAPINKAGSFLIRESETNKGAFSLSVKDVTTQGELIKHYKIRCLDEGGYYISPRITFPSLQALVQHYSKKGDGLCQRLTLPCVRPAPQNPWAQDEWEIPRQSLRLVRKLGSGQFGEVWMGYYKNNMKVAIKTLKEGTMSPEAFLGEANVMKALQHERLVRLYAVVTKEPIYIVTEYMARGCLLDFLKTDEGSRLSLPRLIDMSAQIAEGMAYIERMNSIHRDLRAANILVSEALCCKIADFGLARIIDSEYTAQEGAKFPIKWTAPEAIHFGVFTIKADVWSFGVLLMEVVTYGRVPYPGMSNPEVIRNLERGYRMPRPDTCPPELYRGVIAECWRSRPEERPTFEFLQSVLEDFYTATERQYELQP
ERBB2, sequence (P04626 23-1255): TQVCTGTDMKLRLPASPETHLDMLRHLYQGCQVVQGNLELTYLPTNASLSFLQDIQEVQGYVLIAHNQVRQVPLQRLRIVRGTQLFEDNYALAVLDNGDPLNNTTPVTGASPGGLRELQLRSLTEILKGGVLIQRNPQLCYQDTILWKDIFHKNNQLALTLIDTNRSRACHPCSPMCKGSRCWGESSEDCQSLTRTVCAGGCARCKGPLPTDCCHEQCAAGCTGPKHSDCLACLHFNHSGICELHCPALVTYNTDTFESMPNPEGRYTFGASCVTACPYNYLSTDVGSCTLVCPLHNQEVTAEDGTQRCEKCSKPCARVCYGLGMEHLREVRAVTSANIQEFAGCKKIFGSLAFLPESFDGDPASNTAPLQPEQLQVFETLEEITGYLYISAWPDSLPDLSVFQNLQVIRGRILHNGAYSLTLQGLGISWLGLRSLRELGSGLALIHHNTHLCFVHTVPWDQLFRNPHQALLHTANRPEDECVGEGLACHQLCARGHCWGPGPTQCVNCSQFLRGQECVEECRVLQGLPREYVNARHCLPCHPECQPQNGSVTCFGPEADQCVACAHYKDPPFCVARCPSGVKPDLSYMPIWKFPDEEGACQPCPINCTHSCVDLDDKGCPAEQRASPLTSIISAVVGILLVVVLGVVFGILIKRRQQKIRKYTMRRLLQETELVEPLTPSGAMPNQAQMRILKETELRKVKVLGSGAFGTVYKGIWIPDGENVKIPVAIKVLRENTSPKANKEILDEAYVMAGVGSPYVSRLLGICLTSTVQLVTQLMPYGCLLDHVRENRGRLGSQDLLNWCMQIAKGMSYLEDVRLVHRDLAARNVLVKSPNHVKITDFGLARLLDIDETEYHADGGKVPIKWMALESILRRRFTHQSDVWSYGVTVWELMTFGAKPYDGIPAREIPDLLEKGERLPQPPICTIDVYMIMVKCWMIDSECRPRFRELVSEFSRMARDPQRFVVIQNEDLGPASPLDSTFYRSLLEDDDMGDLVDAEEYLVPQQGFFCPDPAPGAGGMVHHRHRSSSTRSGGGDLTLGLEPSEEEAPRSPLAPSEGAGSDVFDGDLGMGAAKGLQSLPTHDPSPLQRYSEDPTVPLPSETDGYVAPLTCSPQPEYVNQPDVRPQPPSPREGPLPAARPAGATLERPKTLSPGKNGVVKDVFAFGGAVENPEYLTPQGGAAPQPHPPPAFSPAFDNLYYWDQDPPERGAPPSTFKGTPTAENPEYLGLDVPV
ERBB4, sequence (Q15303 26-1308): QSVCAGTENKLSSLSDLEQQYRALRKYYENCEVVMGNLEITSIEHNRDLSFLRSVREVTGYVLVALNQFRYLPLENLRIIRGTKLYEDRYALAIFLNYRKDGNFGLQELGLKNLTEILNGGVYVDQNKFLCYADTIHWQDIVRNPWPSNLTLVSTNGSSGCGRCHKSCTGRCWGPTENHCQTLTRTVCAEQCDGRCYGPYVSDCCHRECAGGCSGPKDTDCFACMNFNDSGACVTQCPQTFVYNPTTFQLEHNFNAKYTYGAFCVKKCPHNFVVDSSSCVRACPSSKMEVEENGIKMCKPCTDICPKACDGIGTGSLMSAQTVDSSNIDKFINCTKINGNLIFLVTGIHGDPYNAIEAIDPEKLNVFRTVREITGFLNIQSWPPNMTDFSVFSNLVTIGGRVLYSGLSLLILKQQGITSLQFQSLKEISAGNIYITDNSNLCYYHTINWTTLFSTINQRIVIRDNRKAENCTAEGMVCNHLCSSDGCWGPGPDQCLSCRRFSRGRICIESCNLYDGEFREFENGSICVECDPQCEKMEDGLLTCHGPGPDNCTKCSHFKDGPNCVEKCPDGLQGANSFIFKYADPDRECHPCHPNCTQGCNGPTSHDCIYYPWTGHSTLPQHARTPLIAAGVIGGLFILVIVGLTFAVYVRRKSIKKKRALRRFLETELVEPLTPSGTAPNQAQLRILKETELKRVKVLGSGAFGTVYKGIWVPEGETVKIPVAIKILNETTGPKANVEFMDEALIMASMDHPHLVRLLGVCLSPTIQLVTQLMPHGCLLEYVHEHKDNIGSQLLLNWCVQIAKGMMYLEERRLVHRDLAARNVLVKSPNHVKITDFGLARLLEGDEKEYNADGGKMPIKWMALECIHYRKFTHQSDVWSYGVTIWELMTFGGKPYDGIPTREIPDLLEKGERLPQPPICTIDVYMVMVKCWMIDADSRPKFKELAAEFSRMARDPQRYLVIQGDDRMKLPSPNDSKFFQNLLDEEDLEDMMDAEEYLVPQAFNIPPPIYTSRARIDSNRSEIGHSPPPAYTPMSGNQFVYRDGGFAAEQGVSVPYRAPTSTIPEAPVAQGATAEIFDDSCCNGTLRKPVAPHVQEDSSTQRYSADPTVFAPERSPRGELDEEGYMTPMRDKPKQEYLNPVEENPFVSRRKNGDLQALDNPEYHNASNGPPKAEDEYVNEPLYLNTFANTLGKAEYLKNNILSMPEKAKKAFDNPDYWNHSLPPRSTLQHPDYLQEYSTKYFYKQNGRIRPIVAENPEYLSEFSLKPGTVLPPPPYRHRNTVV
T4 sequence (P52333 822-1111 limits assumed): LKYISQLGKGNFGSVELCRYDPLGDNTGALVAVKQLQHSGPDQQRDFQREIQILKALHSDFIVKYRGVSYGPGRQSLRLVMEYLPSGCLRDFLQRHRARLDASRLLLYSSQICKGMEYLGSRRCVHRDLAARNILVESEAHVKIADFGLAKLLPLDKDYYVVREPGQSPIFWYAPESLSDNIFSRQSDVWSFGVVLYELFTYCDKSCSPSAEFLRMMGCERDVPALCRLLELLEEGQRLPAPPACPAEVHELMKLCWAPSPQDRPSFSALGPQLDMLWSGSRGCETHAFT
Experimental for JNK1 (MAPK8): (§9) The compounds were diluted directly into the assays such that the final concentration of DMSO was 0.9%. No enzyme purification steps were performed on the protein extracts before adding them to the reaction mixture, and the protein extracts were diluted 10,000-fold in the final reaction mixture (the final DNA-tagged enzyme concentration was less than 0.1 nM). Binding assay mixtures were incubated at 25 °C with shaking for 1 h. […] The concentration of wild-type or mutant BTK in the eluates was then determined using quantitative PCR. […] Each assay’s affinity ligand concentration on the magnetic beads has been optimized to ensure that the true thermodynamic Kd values for competitor molecules were measured, as described in detail previously99.
(§10) Comparison of BTK inhibitor specificity to c-Jun N-terminal kinases (JNK1-3/MAPKP8-10).
(§11) a The percent of control (POC) is the percent of kinase that was competed off its control ligand relative to the positive and negative controls at the screening concentration56. A zero POC signifies that the compound
Experimental for JNK2 (MAPK9): as §9, §10, §11

In general, IC50 refers to the concentration needed to halve the response being measured. As to `C=CC(=O)N1CCC[C@@H](n2nc(-c3ccc(Oc4ccccc4)cc3)c3c(N)ncnc32)C1` [Ibrutinib], the “TXK binding POC” value at TXK was 0.5% of control. Moreover, the “ERBB2 binding POC” value on ERBB2 is 0.1% of control. Besides, the “JNK1 (MAPK8) POC” value at JNK1 (MAPK8) was 78% of control. Moreover, on JNK2 (MAPK9), the “JNK2 (MAPK9) POC” value was 78% of control. The figures for the half-maximal inhibitory concentration (IC50) with BTK C481S and in the data set with BTK were […] and […], respectively. In addition, the “MKK7 binding POC” value at MKK7 is 0.15% of control. Further, the “ERBB4 binding POC” value at ERBB4 was 0% of control. Also, the “BLK binding POC” value at BLK is 0.25% of control. The “ERBB3 binding POC” value on ERBB3 is on record as 0.15% of control. At EGFR, the “EGFR binding POC” value is listed as 0% of control. Moreover, the “TEC binding POC” value on TEC is given as 5.9% of control.

For the compound `C=CC(=O)N1CCC(c2ccc(C(N)=O)c(-c3ccc(Oc4ccccc4)cc3)n2)CC1` [Orelabrutinib], in the data set with patients with R/R MCL, the CR was 27.4%, the PR is 53.8% and the overall response rate is on record as 81.1%. On TXK, the “TXK binding POC” value is listed as 34% of control. For the same compound, at ERBB2, the “ERBB2 binding POC” value is on record as 100% of control. Also, on JNK1 (MAPK8), the “JNK1 (MAPK8) POC” value is given as 100% of control. In addition, the “JAK3 binding POC” value in [1] is listed as 89% of control. For the same compound, the “JNK2 (MAPK9) POC” value at JNK2 (MAPK9) is on record as 100% of control. Further, the “JNK3 (MAPK10) POC” value at JNK3 (MAPK10) was 100% of control. In addition, the “MKK7 binding POC” value on MKK7 is on record as 100% of control. In addition, the “ERBB4 binding POC” value at ERBB4 is listed as 96% of control. For the same compound, the “BLK binding POC” value on BLK is 52% of control. For the same compound, the “ERBB3 binding POC” value on ERBB3 is recorded as 88% of control. For the same compound, the “ITK binding POC” value at ITK is on record as 100% of control. Further, the “BMX binding POC” value on BMX was 27% of control.

For the compound `C=CC(=O)N1CCC([C@@H]2CCNc3c(C(N)=O)c(-c4ccc(Oc5ccccc5)cc4)nn32)CC1` [Zanubrutinib], on TXK, the “TXK binding POC” value is 2.2% of control. Moreover, the “overall response rate (ORR, partial and complete responses)” value in [2] (after 15 months, P < 0.001, ref NCT03734016) was 78.3%. Further, the cardiovascular adverse events in data set [2] (two-sided P = 0.001, ref NCT03734016) is 2.5%. Further, the “ERBB2 binding POC” value at ERBB2 is 7.3% of control. Moreover, on JNK1 (MAPK8), the “JNK1 (MAPK8) POC” value is listed as 99% of control. In addition, in [1], the “JAK3 binding POC” value is recorded as 20% of control. Also, on JNK2 (MAPK9), the “JNK2 (MAPK9) POC” value is recorded as 95% of control. Besides, at JNK3 (MAPK10), the “JNK3 (MAPK10) POC” value is given as 93% of control. On MKK7, the “MKK7 binding POC” value was 55% of control. For the same compound, the “ERBB4 binding POC” value at ERBB4 is recorded as 0.75% of control. Further, the “BLK binding POC” value on BLK is on record as 0.3% of control. The IC50 in the data set with BTK was […]. Besides, on ERBB3, the “ERBB3 binding POC” value was 23% of control. Besides, the “ITK binding POC” value on ITK is 74% of control. The “EGFR binding POC” value on EGFR is on record as 0% of control. In addition, the “TEC binding POC” value on TEC is on record as 8.7% of control.

The values above are taken from article PMC11997881, “Comprehensive Characterization of Bruton’s Tyrosine Kinase Inhibitor Specificity, Potency, and Biological Effects: Insights into Covalent and Noncovalent Mechanistic Signatures” (ACS Pharmacology & Translational Science, 2025).
